Tested on: MOLM-13 cells
Assay: In vitro proliferation (Cell Titer Glo, 6 days) of Compound 51 in combination with gilteritinib, midostaurin, idarubicin or decitabine, MOLM-13
Assay type: cell-based, human
Set-up: key to maxR call (synergy/antagonism), combination with Gilteritinib on MOLM-13 cell proliferation / Synergy/antagonism call (maxR test), MOLM-13 Cell Proliferation: synergy is indicated by “**”; antagonism is indicated by “*”; no asterisk: absence of any asterisk indicates an additive effect
Protocol: 3) In Vitro Proliferation—Menin-MLL Inhibitor in Combination with FLT3 Inhibitor (Gilteritinib or Midostaurin), DNA Intercalating Agent (Idarubicin) or Hypomethylating Agent (Decitabine)
The effect of Compound 51 in combination with gilteritinib, midostaurin, idarubicin or decitabine was determined in proliferation assays.
AML cell lines MOLM-13, OCI-AML3 and MV4-11 were purchased from DSMZ. MOLM-13 were grown in RPMI medium supplemented with 10% Fetal Bovine Serum (FBS) and 1% penicillin/streptomycin. MV4-11 cells were grown in IMDM medium supplemented with 10% FBS and 1% penicillin/streptomycin. OCI-AML3 cells were cultured in 80-90% alpha-MEM (with or without ribo- and deoxyribonucleosides)+10-20% FBS. All cell lines were cultured at 37° C. in 5% CO2 atmosphere.
AML cell lines (10-20×10^3 cells/well) were seeded in 96-well plates and grown for 6 days in serum (10%)-containing medium in the presence or absence of inhibitors at the indicated concentrations. Proliferation was analyzed by means of a Cell Titer Glo assay using the […] (Promega, Madison, WI, USA), according to the manufacturer's instructions. Data are mean with standard deviation from two to four independent experiments in technical triplicates.
R-based Biochemically Intuitive Generalized Loewe (BIGL) model implemented with a highest single agent (HSA) null model. Specifically, the BIGL methodology was applied to calculate drug-drug interactions (Van der Borght, K., Tourny, A., Bagdziunas, R. et al. BIGL: Biochemically Intuitive Generalized Loewe null model for prediction of the expected combined effect compatible with partial agonism and antagonism. Sci Rep 7, 17935 (2017); Thas, O., Tourny, A., Verbist, B., Hawinkel, S., Nazarov, M., Mutambanengwe, K., & Bijnens, L. Statistical detection of synergy: New methods and a comparative study. Pharmaceutical Statistics (2021)).
Synergy matrix results of the BIGL analysis of the cell line data with HSA as mean model calculated on the basis of the cellular metabolic activity using Cell Titer-Glo assay. Bootstrap confidence intervals are indicated. Effect sizes and their confidence intervals are shown. […] No significant average effect if zero is included in the interval.

[1] = Compound 51 0.05 μm, Gilteritinib 0.01 μM
[2] = Compound 51 0.1 μm + Decitabine 0.015 μM
[3] = Compound 51 0.1 μm + Decitabine 0.15 μM
[4] = Compound 51 0.1 μm + Idarubicin 0.001 μM
[5] = Compound 51 0.1 μm + Midostaurin 0.006 μM
[6] = Compound 51 0.1 μm + Midostaurin 0.025 μM
[7] = Compound 51 0.1 μm, Gilteritinib 0.01 μM
[8] = Compound 51 1 μm + Decitabine 0.15 μM
[9] = Compound 51 1 μm + Idarubicin 0.001 μM
[10] = Compound 51 1 μm + Midostaurin 0.006 μM
[11] = Compound 51 1 μm + Midostaurin 0.025 μM
[12] = Compound 51 10 μm + Decitabine 0.015 μM
[13] = Compound 51 10 μm + Decitabine 0.15 μM
[14] = Compound 51 10 μm, Gilteritinib 0.01 μM
[15] = Compound 51 10 μm, Gilteritinib 0.05 μM

## CC(=O)N1CCC(CN2CC[C@@H](Cc3cn(-c4ccc(F)cc4C(=O)N(C)C(C)C)c4cncc(C)c34)C2)CC1 [Compound 51]
Compound 51 0.05 μm, Gilteritinib 0.005 μM
  Effect size (BIGL, HSA null model), combination with Gilteritinib on MOLM-13 cell proliferation: −0.14
[1]
  Effect size (BIGL, HSA null model), combination with Gilteritinib on MOLM-13 cell proliferation: −0.32
  maxR call (synergy/antagonism), combination with Gilteritinib on MOLM-13 cell proliferation: **
Compound 51 0.05 μm, Gilteritinib 0.05 μM
  Effect size (BIGL, HSA null model), combination with Gilteritinib on MOLM-13 cell proliferation: −0.22
Compound 51 0.05 μm, Gilteritinib 0.1 μM
  Effect size (BIGL, HSA null model), combination with Gilteritinib on MOLM-13 cell proliferation: −0.14
Compound 51 0.05 μm, Gilteritinib 1 μM
  Effect size (BIGL, HSA null model), combination with Gilteritinib on MOLM-13 cell proliferation: −0.01
Compound 51 0.1 μm + Decitabine 0.0015 μM
  Effect size (BIGL, HSA null model), MOLM-13 Cell Proliferation: −0.01
[2]
  Effect size (BIGL, HSA null model), MOLM-13 Cell Proliferation: −0.33
  Synergy/antagonism call (maxR test), MOLM-13 Cell Proliferation: **
[3]
  Effect size (BIGL, HSA null model), MOLM-13 Cell Proliferation: −0.35
  Synergy/antagonism call (maxR test), MOLM-13 Cell Proliferation: **
Compound 51 0.1 μm + Decitabine 1.5 μM
  Effect size (BIGL, HSA null model), MOLM-13 Cell Proliferation: −0.05
Compound 51 0.1 μm + Decitabine 3 μM
  Effect size (BIGL, HSA null model), MOLM-13 Cell Proliferation: −0.03
Compound 51 0.1 μm + Idarubicin 0.0005 μM
  Effect size (BIGL, HSA null model), MOLM-13 Cell Proliferation: −0.13
[4]
  Effect size (BIGL, HSA null model), MOLM-13 Cell Proliferation: −0.42
  Synergy/antagonism call (maxR test), MOLM-13 Cell Proliferation: **
Compound 51 0.1 μm + Idarubicin 0.0025 μM
  Effect size (BIGL, HSA null model), MOLM-13 Cell Proliferation: −0.23
Compound 51 0.1 μm + Idarubicin 0.005 μM
  Effect size (BIGL, HSA null model), MOLM-13 Cell Proliferation: −0.11
Compound 51 0.1 μm + Idarubicin 0.05 μM
  Effect size (BIGL, HSA null model), MOLM-13 Cell Proliferation: 0.02
Compound 51 0.1 μm + Idarubicin 0.5 μM
  Effect size (BIGL, HSA null model), MOLM-13 Cell Proliferation: 0.02
Compound 51 0.1 μm + Midostaurin 0.0012 μM
  Effect size (BIGL, HSA null model), MOLM-13 Cell Proliferation: −0.08
[5]
  Effect size (BIGL, HSA null model), MOLM-13 Cell Proliferation: −0.23
  Synergy/antagonism call (maxR test), MOLM-13 Cell Proliferation: **
[6]
  Effect size (BIGL, HSA null model), MOLM-13 Cell Proliferation: −0.17
  Synergy/antagonism call (maxR test), MOLM-13 Cell Proliferation: **
Compound 51 0.1 μm + Midostaurin 0.05 μM
  Effect size (BIGL, HSA null model), MOLM-13 Cell Proliferation: −0.08
Compound 51 0.1 μm + Midostaurin 0.1 μM
  Effect size (BIGL, HSA null model), MOLM-13 Cell Proliferation: −0.04
Compound 51 0.1 μm + Midostaurin 0.5 μM
  Effect size (BIGL, HSA null model), MOLM-13 Cell Proliferation: −0.02
Compound 51 0.1 μm, Gilteritinib 0.0005 μM
  Effect size (BIGL, HSA null model), combination with Gilteritinib on MOLM-13 cell proliferation: −0.03
Compound 51 0.1 μm, Gilteritinib 0.005 μM
  Effect size (BIGL, HSA null model), combination with Gilteritinib on MOLM-13 cell proliferation: −0.13
[7]
  Effect size (BIGL, HSA null model), combination with Gilteritinib on MOLM-13 cell proliferation: −0.3
  maxR call (synergy/antagonism), combination with Gilteritinib on MOLM-13 cell proliferation: **
Compound 51 0.1 μm, Gilteritinib 0.05 μM
  Effect size (BIGL, HSA null model), combination with Gilteritinib on MOLM-13 cell proliferation: −0.24
Compound 51 0.1 μm, Gilteritinib 0.1 μM
  Effect size (BIGL, HSA null model), combination with Gilteritinib on MOLM-13 cell proliferation: −0.14
Compound 51 0.1 μm, Gilteritinib 1 μM
  Effect size (BIGL, HSA null model), combination with Gilteritinib on MOLM-13 cell proliferation: −0.01
Compound 51 1 μm + Decitabine 0.0015 μM
  Effect size (BIGL, HSA null model), MOLM-13 Cell Proliferation: 0.03
Compound 51 1 μm + Decitabine 0.015 μM
  Effect size (BIGL, HSA null model), MOLM-13 Cell Proliferation: −0.1
[8]
  Effect size (BIGL, HSA null model), MOLM-13 Cell Proliferation: −0.38
  Synergy/antagonism call (maxR test), MOLM-13 Cell Proliferation: **
Compound 51 1 μm + Idarubicin 0.0005 μM
  Effect size (BIGL, HSA null model), MOLM-13 Cell Proliferation: −0.08
[9]
  Effect size (BIGL, HSA null model), MOLM-13 Cell Proliferation: −0.38
  Synergy/antagonism call (maxR test), MOLM-13 Cell Proliferation: **
Compound 51 1 μm + Idarubicin 0.0025 μM
  Effect size (BIGL, HSA null model), MOLM-13 Cell Proliferation: −0.24
Compound 51 1 μm + Idarubicin 0.005 μM
  Effect size (BIGL, HSA null model), MOLM-13 Cell Proliferation: −0.11
Compound 51 1 μm + Idarubicin 0.05 μM
  Effect size (BIGL, HSA null model), MOLM-13 Cell Proliferation: 0.02
Compound 51 1 μm + Idarubicin 0.5 μM
  Effect size (BIGL, HSA null model), MOLM-13 Cell Proliferation: 0.02
Compound 51 1 μm + Midostaurin 0.0012 μM
  Effect size (BIGL, HSA null model), MOLM-13 Cell Proliferation: −0.03
[10]
  Effect size (BIGL, HSA null model), MOLM-13 Cell Proliferation: −0.18
  Synergy/antagonism call (maxR test), MOLM-13 Cell Proliferation: **
[11]
  Effect size (BIGL, HSA null model), MOLM-13 Cell Proliferation: −0.19
  Synergy/antagonism call (maxR test), MOLM-13 Cell Proliferation: **
Compound 51 1 μm + Midostaurin 0.05 μM
  Effect size (BIGL, HSA null model), MOLM-13 Cell Proliferation: −0.08
Compound 51 1 μm + Midostaurin 0.1 μM
  Effect size (BIGL, HSA null model), MOLM-13 Cell Proliferation: −0.04
Compound 51 1 μm + Midostaurin 0.5 μM
  Effect size (BIGL, HSA null model), MOLM-13 Cell Proliferation: −0.02
Compound 51 1 μm, Gilteritinib 0.0005 μM
  Effect size (BIGL, HSA null model), combination with Gilteritinib on MOLM-13 cell proliferation: 0.03
Compound 51 1 μm, Gilteritinib 0.005 μM
  Effect size (BIGL, HSA null model), combination with Gilteritinib on MOLM-13 cell proliferation: −0.1
Compound 51 1 μm, Gilteritinib 0.01 μM
  Effect size (BIGL, HSA null model), combination with Gilteritinib on MOLM-13 cell proliferation: −0.22
Compound 51 1 μm, Gilteritinib 0.05 μM
  Effect size (BIGL, HSA null model), combination with Gilteritinib on MOLM-13 cell proliferation: −0.25
Compound 51 1 μm, Gilteritinib 0.1 μM
  Effect size (BIGL, HSA null model), combination with Gilteritinib on MOLM-13 cell proliferation: −0.14
Compound 51 1 μm, Gilteritinib 1 μM
  Effect size (BIGL, HSA null model), combination with Gilteritinib on MOLM-13 cell proliferation: −0.01
Compound 51 10 μm + Decitabine 0.0015 μM
  Effect size (BIGL, HSA null model), MOLM-13 Cell Proliferation: −0.06
[12]
  Effect size (BIGL, HSA null model), MOLM-13 Cell Proliferation: −0.16
  Synergy/antagonism call (maxR test), MOLM-13 Cell Proliferation: **
[13]
  Effect size (BIGL, HSA null model), MOLM-13 Cell Proliferation: −0.38
  Synergy/antagonism call (maxR test), MOLM-13 Cell Proliferation: **
Compound 51 10 μm + Decitabine 1.5 μM
  Effect size (BIGL, HSA null model), MOLM-13 Cell Proliferation: −0.05
Compound 51 10 μm + Decitabine 3 μM
  Effect size (BIGL, HSA null model), MOLM-13 Cell Proliferation: −0.03
Compound 51 10 μm, Gilteritinib 0.0005 μM
  Effect size (BIGL, HSA null model), combination with Gilteritinib on MOLM-13 cell proliferation: −0.05
Compound 51 10 μm, Gilteritinib 0.005 μM
  Effect size (BIGL, HSA null model), combination with Gilteritinib on MOLM-13 cell proliferation: −0.17
[14]
  Effect size (BIGL, HSA null model), combination with Gilteritinib on MOLM-13 cell proliferation: −0.26
  maxR call (synergy/antagonism), combination with Gilteritinib on MOLM-13 cell proliferation: **
[15]
  Effect size (BIGL, HSA null model), combination with Gilteritinib on MOLM-13 cell proliferation: −0.27
  maxR call (synergy/antagonism), combination with Gilteritinib on MOLM-13 cell proliferation: **
Compound 51 10 μm, Gilteritinib 0.1 μM
  Effect size (BIGL, HSA null model), combination with Gilteritinib on MOLM-13 cell proliferation: −0.14
Compound 51 10 μm, Gilteritinib 1 μM
  Effect size (BIGL, HSA null model), combination with Gilteritinib on MOLM-13 cell proliferation: −0.01
In combination with Midostaurin 6 to 25 nM, MOLM-13
  combination effect on proliferation at low doses of Midostaurin: synergized
In combination with decitabine, MOLM-13, 6-day CellTiter-Glo matrix
  combination effect on proliferation (cytotoxicity): synergistically cytotoxic
In combination with gilteritinib 500 pM, MOLM-13
  combination effect on proliferation at low doses of gilteritinib: synergistic effect
In combination with gilteritinib, MOLM-13, 6-day CellTiter-Glo matrix
  combination effect on proliferation (cytotoxicity): not antagonistically cytotoxic
In combination with idarubicin, MOLM-13, 6-day Cell Titer-Glo matrix
  combination effect on proliferation (cytotoxicity): synergistically cytotoxic
In combination with midostaurin, MOLM-13, 6-day CellTiter-Glo matrix
  combination effect on proliferation (cytotoxicity): not antagonistically cytotoxic
